Patent US4122204A, “N-(4-tert-butylphenylthiosulfenyl)-N-alkyl aryl carbamate compounds” (priority 1976, dated 1978)
In brackets after ≈: the same amount, converted by molar mass. Like-named read-outs stand apart in the source and are kept apart here.

What was measured:
[1] = test system: southern armyworm (Prodenia eridania, (Cram.)); assay: Southern Armyworm Leaf Spray Test; format: in vivo; conditions: for LC50: Spodoptera eridania, 72 h, read-out: Southern Armyworm LD50
Method: (§1) Suspensions of the test compounds were prepared by dissolving one gram of compound in 50 milliliters of acetone in which had been dissolved 0.1 gram (10 percent of the weight of compound) of an alkylphenoxy polyethoxyethanol surfactant, as an emulsifying or dispersing agent. The resulting solution was mixed into 150 milliliters of water to give roughly 200 milliliters of a suspension containing the compound in finely divided form. The thus-prepared stock suspension contained 0.5 percent by weight of test compound. The test concentration in parts per million by weight employed in the tests described hereinbelow were obtained by appropriate dilutions of the stock suspension with water. The test procedures were as follows:
Larvae of the southern armyworm (Prodenia eridania, (Cram.)), reared on Tendergreen bean plants at a temperature of 80°±5° F. and a relative humidity of 50±5 percent, constituted the test insects.
The test compounds were formulated by diluting the stock suspension with water to give a suspension containing 500 parts of test compound per million parts of final formulation. Potted Tendergreen bean plants of standard height and age were placed on a revolving turntable and sprayed with 100-110 milliliters of test compound formulation by use of a DeVilbiss spray gun set at 10 psig air pressure. This application, which lasted 25 seconds, was sufficient to wet plants to run-off. As a control, 100-110 milliliters of a water-acetone-emulsifier solution containing no test compound were also sprayed on infested plants. When dry, the paired leaves were separated and each one was placed in a 9 centimeter Petri dish lined with moistened filter paper. Five randomly selected larvae were introduced into each dish and the dishes were closed. The closed dishes were labeled and held at 80-85° F. for three days. Although the larvae could easily consume the whole leaf within twenty-four hours, no more food was added. Larvae which were unable to move the length of the body, even upon stimulation by prodding, were considered dead. Percent mortality was recorded for various concentration levels.

[2] = test system: two-spotted mite (Tetranychus urticae Koch); assay: Mite Foliage Spray Test; format: in vivo; conditions: foliar, 144 h, read-out: Mite LD50
Method: as §1
Adults and numphal stages of the two-spotted mite (Tetranychus urticae Koch), reared on Tendergreen bean plants at 80±5 percent relative humidity, were the test organisms. Infested leaves from a stock culture were placed on the primary leaves of two bean plants six to eight inches in height, growing in a two-and-a-half inch clay pot. 150-200 Mites, a sufficient number for testing, transferred from the excised leaves to the fresh plants in a period of twenty four hours. Following the twenty four hour transfer period, the excised leaves were removed from the infested plants. The test compounds were formulated by diluting the stock suspension with water to give a suspension containing 500 parts of test compound per million parts of final formulation. The potted plants (one pot per compound) were placed on a revolving turntable and sprayed with 100-110 milliliters of test compound formulation by use of a DeVilbiss spray gun set at 40 psig. air pressure. This application, which lasted 25 seconds, was sufficient to wet the plants to run-off. As a control, 100-110 milliliters of a water solution containing acetone and emulsifier in the same concentrations as the test compound formulation, but containing no test compound, were also sprayed on infested plants. The sprayed plants were held at 80±5 percent relative humidity for six days, after which a mortality countr of motile forms was made. Microscopic examination for motile forms was made on the leaves of the test plants. Any individual which was capable of locomotion upon prodding was considered living.

[3] = test system: house flies (Musca domestica, L.); assay: Fly Bait Test; format: in vivo; conditions: 24 h, read-out: House Fly LD50
Method: as §1
Four to six day old adult house flies (Musca domestica, L.), reared according to the specifications of the Chemical Specialities Manufacturing Association (Blue Book, McNair-Dorland Co., N.Y. 1954; pages 243-244, 261) under controlled conditions of 80°±5° F. and 50±5 percent relative humidity, were the test insects. The flies were immobilized by anesthetizing with carbon dioxide and twenty five immobilized individuals, males and females, were transferred to a cage consisting of a standard food strainer about five inches in diameter which was inverted over a wrapping-papercovered surface. The test compounds were formulated by diluting the stock suspension with a 10 percent (by weight) sugar solution to give a suspension containing 500 parts of test compound per million parts of final formulation, by weight. Ten milliliters of the test formulation were added to a souffle cup containing a one-inch square of an absorbent cotton pad. This bait cup was introduced and centered on the blotting paper under the food strainer prior to admitting the anesthetized flies. The caged flies were allowed to feed on the bait for twenty four hours, at a temperature of 80°±5° F. and the relative humidity of 50±5 percent.

[4] = test system: bean aphid (Aphis fabae Scop.); assay: Bean Aphid Foliage Spray Test; format: in vivo; conditions: for LC50: Aphis fabae, foliar, read-out: Aphid LD50
Method: as §1
Adults and nymphal stages of the bean aphid (Aphis fabae Scop.) reared on potted dwarf nasturtium plants at 65°-70° F. and 50-70 percent relative humidity, constituted the test insects. For testing purposes, the number of aphids per pot was standardized to 100-150 by trimming plants containing excess aphids.
The test compounds were formulated by diluting the stock suspension with water to give a suspension containing 500 parts of test compound per million parts of final formulation.
The potted plants (one pot per compound tested) infested with 100-150 aphids, were placed on a revolving turntable and sprayed with 100-110 milliliters of test compound formulation by use of a DeVilbiss spray gun set at 40 psig. air pressure. This application, which lasted 25 seconds, was sufficient to wet the plants to run-off. As a control, 100-110 milliliters of a water-acetone-emulsifier solution containing no test compound were also sprayed on infested plants. After spraying, the pots were placed on their sides on a sheet of white standard mimeograph paper which had been previously ruled to facilitate counting. Temperature and humidity in the test room during the 24 hour holding period were 65°-70° F. and 50-70 percent, respectively. Aphids which fell onto the paper and were unable to remain standing after being uprighted were considered dead. Aphids remaining on the plants were observed closely for movement and those which were unable to move the length of the body upon stimulation by prodding were considered dead. Percent mortality was recorded for various concentration levels.

[5] = test system: Mexican bean beetle (Epilachna varivestis, Muls.); assay: Mexican Bean Beetle Leaf Spray Test; format: in vivo; conditions: for LC50: Epilachna varivestis, 72 h, read-out: Mexican Bean Beetle LD50
Method: as §1
Fourth instar larvae of the Mexican bean beetle (Epilachna varivestis, Muls.), reared on Tendergreen bean plants at a temperature of 80°±5° F. and 50±5 percent relative humidity, were the test insects.
The test compounds were formulated by diluting the stock suspension with water to give a suspension containing 500 parts of test compound per million parts of final formulation. Potted Tendergreen bean plants of standard height and age were placed on a revolving turntable and sprayed with 100-110 milliliters of test compound formulation by use of a DeVilbiss spray gun set at 10 psig air pressure. This application, which lasted 25 seconds, was sufficient to wet plants to run-off. As a control, 100-110 milliliters of a water-acetone-emulsifier solution containing no test compound were also sprayed on infested plants. When dry, the paired leaves were separated and each was placed in a 9 centimeter Petri dish lined with moistened filter paper. Five randomly selected larvae were introduced into each dish, and the dishes were closed. The closed dishes were labeled and held at a temperature of 80°±5° F. for three days. Although the larvae could easily consume the leaf within 24 to 48 hours, no more food was added. Larvae which were unable to move the length of the body, even upon stimulation, were considered dead.

rat = assay: in vivo; conditions: for mammalian toxicity (in words): rat, in vivo
Method: (§2) These compounds were also evaluated to determine their peroral toxicity to mammals by conventional methods. The animal selected for this experiment was the rat.
(§3) The toxicity is reported in […] required for a 50% kill (LD50).

in vivo = conditions: rat, in vivo, po
Method: as §2, §3

mites and insects = assay: Pesticidal activity against mites and insects (general statement); conditions: in vivo
Method: Selected species of the new compounds were evaluated in comparison with known similar prior art compounds to determine their pesticidal activity against mites and certain insects, including an aphid, a caterpillar, a beetle and a fly. The new compounds were further evaluated for mammalian toxicity.

important economic crops = assay: Phytotoxicity against important economic crops
[6] = leaf spray, ppm required for 50% kill, three days
[7] = foliage spray, ppm required for 50% kill, six days
[8] = bait test, ppm required for 50% kill, twenty four hours
[9] = foliage spray, ppm required for 50% kill, 24 hour holding period
[10] = LD50 value (mammalian toxicity), peroral, unit inferred
[11] = Rat LD50, peroral, dose for mortality rate of 50 percent

SMILES	LC50 [1, 6] [µg/mL]	LC50 [2, 7] [µg/mL]	LC50 [3, 8] [µg/mL]	LC50 [4, 9] [µg/mL]	LC50 [5, 6] [µg/mL]	mammalian toxicity (in words) (rat)	LD50 (in vivo; [10]) [mg/kg]	LD50 (in vivo; [11]) [mg/kg]	LC50 [1] [µg/mL]	LC50 [2] [µg/mL]	LC50 [3] [µg/mL]	LC50 ([4]; 24 h) [µg/mL]	LC50 [5] [µg/mL]	pesticidal activity against mites and insects (in words) (mites and insects)	insecticidal activity against south armyworm (in words) ([1]; in vivo)	phytotoxicity (in words) (important economic crops)	insecticidal activity against aphid (in words) ([4]; in vivo)	insecticidal activity against bean beetle (in words) ([5]; in vivo)	times less toxic to mammals than parent compound (compound 1) (rat; rat LD50 ratio vs compound 1)	times less toxic to mammals than 4-methylphenylthiosulfenyl derivative (compound 2) (rat; rat LD50 ratio vs compound 2)
CNC(=O)Oc1cccc2c1OC(C)(C)C2 [Compound 1, 2,2-Dimethyl-2,3-dihydro-7-(N-methylcarbamoyloxy)benzofuran]	90 (≈ 407 µM)	175 (≈ 791 µM)	12 (≈ 54.2 µM)	2 (≈ 9.04 µM)	12 (≈ 54.2 µM)	unacceptable levels of mammaliam toxicity	8 to 14	8 to 14	–	–	–	–	–	–	–	–	–	–	–	–
Cc1ccc(SSN(C)C(=O)Oc2cccc3c2OC(C)(C)C3)cc1 [Compound 2, 2,2-Dimethyl-2,3-dihydro-7-[N-methyl-N-(4-methylphenyl-thiosulfenyl)carbamoyloxy]benzofuran]	–	–	–	–	–	–	20	20	~25 (≈ 66.6 µM)	130 (≈ 346 µM)	21 (≈ 55.9 µM)	1.4 (≈ 3.73 µM)	4 (≈ 10.7 µM)	levels generally comparable to those of the parent compounds	–	–	–	–	–	–
CN(SSc1ccc(C(C)(C)C)cc1)C(=O)Oc1cccc2c1OC(C)(C)C2 [Compound 3, 2,2-Dimethyl-2,3-dihydro-7-[N-methyl-N-(4-tert-butylphenylthiosulfenyl)carbamoyloxy] benzofuran]	–	–	–	–	–	extremely low mammalian toxicity	453	453	40 (≈ 95.8 µM)	> 500	< 17	3 (≈ 7.18 µM)	5 (≈ 12 µM)	–	exceptionally high level of insecticidal activity	low phytotoxicity	exceptionally high level of insecticidal activity	exceptionally high level of insecticidal activity	at least 38 times	at least 23 times
CC(C)Oc1ccccc1OC(=O)N(C)SSc1ccc(C(C)(C)C)cc1 [Compound 4, 2-Isopropoxy-[N-methyl-N-(4-tert-butylphenylthiosulfenyl)carbamoyloxy]benzene]	–	–	–	–	–	very low level of mammalian toxicity	> 640	640	250 (≈ 616 µM)	> 500	110 (≈ 271 µM)	22 (≈ 54.2 µM)	11 (≈ 27.1 µM)	–	–	extremely low phytotoxicity	–	–	–	–
CNC(=O)Oc1ccccc1OC(C)C [Compound 5, 2-Isopropoxy-(N-methyl-carbamoyloxy)benzene]	500 (≈ 2390 µM)	> 500	16 (≈ 76.5 µM)	16 (≈ 76.5 µM)	12 (≈ 57.3 µM)	–	95 to 104	95 to 104	–	–	–	–	–	–	–	–	–	–	–	–
